What was measured:
11beta-HSD1 [1] = biological target: T1, 11beta-HSD1 (Homo sapiens, UniProt P28845); parameters: host or cells: human subjects (in vivo); conditions: treatment of humans with carbenoxolone; cited from earlier work
11beta-HSD1 [2] = biological target: T1, 11beta-HSD1; assay: Microsome assay: cortisone to cortisol conversion, ELISA detection; type: biochemical; parameters: The cDNA encoding the human 11beta-HSD1 protein was cloned into the expression vector pcDNA3; made in house; host or cells: HEK293 cells (ATCC CRL-1573), transient transfection; microsomal fraction; conditions: microsomes from HEK293 cells transiently expressing human 11beta-HSD1; 60 min, 37° C.; Cortisone 50-200 nM, NADPH 1 mM; read-out: h 11-beta-HSD 1 IC50
Procedure: The cDNA encoding the human 11beta-HSD1 protein was cloned into the expression vector pcDNA3 ([…]). This construct (for details see Alex Odermatt et al.; J Biol Chem., 1999, Vol. 274, Issue 40, 28762-28770) was used to transiently express the protein in HEK293 cells (ATCC number: CRL-1573, described in Graham, F. L., Smiley, J., Russell, W. C., Nairn, R.; (1977)) using lipofectamine. 48 h after transfection cells were washed twice with ice-cold PBS (Phsophate buffered Saline). To 1 volume of cell suspension in PBS 2 volumes of ice-cold lysis buffer (50 mM Tris; pH7.5; 1 mM EDTA; 100 mM NaCl) were added. The cells were lysed by Potter-homogenization (20 strokes). The resulting homogenate was sonicated with a tip sonicator (10% output; 2×30 sec.) and cleared by a low speed centrifugation (10 min×9000 g; 4° C.). The microsomal fraction was collected by a high speed centrifugation (60 min×110,000 g). […]
Microsomes isolated from HEK293 cells transiently expressing human 11beta-HSD1 (for details see above) were incubated in assay buffer (100 mM NaCl; 1 mM EDTA; 1 mM EGTA; 1 mM MgCl; 250 mM Sucrose; 20 mM Tris pH 7.4; Cortisone 50-200 nM and NADPH 1 mM) together with different concentrations of test substances. […] The amount of Cortisol produced in this assay was determined using a commercially available, ELISA-based Cortisol-detection kit (Distributed by Assay Design, Inc.). […]

T1 sequence (P28845 whole entry): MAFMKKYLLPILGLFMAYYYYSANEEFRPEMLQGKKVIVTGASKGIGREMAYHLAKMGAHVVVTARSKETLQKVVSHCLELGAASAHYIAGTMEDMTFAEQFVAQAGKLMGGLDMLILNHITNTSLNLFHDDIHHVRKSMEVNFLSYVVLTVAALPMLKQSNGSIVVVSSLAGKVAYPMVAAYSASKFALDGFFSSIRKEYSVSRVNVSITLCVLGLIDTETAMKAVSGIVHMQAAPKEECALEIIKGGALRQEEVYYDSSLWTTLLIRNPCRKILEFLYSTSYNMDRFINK

## CC1(C)[C@@H](OC(=O)CCC(=O)O)CC[C@]2(C)[C@H]3C(=O)C=C4[C@@H]5C[C@@](C)(C(=O)O)CC[C@]5(C)CC[C@@]4(C)[C@]3(C)CC[C@@H]12 [carbenoxolone]
11beta-HSD1 [1]
  effect on insulin sensitivity: increase in insulin sensitivity

## CC(C)c1nccc(NS(=O)(=O)c2ccc3ccccc3c2)n1 [Example 26, Naphthalene-2-sulfonic acid (2-isopropyl-pyrimidin-4-yl)-amide]
11beta-HSD1 [2]
  IC50: 167 nM

## O=S(=O)(Nc1ccnc(C2CC2)n1)c1ccc(-c2ccccc2)cc1 [Example 5, Biphenyl-4-sulfonic acid (2-cyclopropyl-pyrimidin-4-yl)-amide]
11beta-HSD1 [2]
  IC50: 20 nM

— US7507733B2, “11b-HSD1 inhibitors for the treatment of diabetes” (Hoffmann-La Roche Inc., priority 2004, dated 2009)
